Experimental data as given in patent US11447486B2, “2-amino-benzimidazole derivatives and their use as 5-lipoxygenase and/or prostaglandin E synthase inhibitors” (INSTITUT PASTEUR KOREA, priority 2014, dated 2022).
pEC50, pIC50: −log10 of the molar value.

How the values were obtained:
[1] = test system: Rat basophilic leukemia (RBL) cells; experiment: LTB4 secretion assay in RBL (rat basophilic leukemia cells); type: cell-based; conditions: Rattus norvegicus, RBL
Summary of the method: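 LTB4 released into supernatant was measured by EIA after 10 min at 37 °C with arachidonic acid (2.5 uM final) and calcium ionophore A23187 (5 uM final). Before stimulation, cells plated 2×10^4/well overnight received compound doses (5 nM to 100 uM) for 15 min in 0.5% FBS medium.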

human 5-LOX = target: T1, human 5-LOX (Homo sapiens, UniProt P09917); experiment: 5-LOX enzyme activity, fluorescence method (5-HPETE, H2DCFDA); type: biochemical; conditions: read-out: 5-LO (IC50)
T1 construct: purchased Cayman 60402; host or cells: insect cells (lysate)
T1 sequence (P09917 1-674): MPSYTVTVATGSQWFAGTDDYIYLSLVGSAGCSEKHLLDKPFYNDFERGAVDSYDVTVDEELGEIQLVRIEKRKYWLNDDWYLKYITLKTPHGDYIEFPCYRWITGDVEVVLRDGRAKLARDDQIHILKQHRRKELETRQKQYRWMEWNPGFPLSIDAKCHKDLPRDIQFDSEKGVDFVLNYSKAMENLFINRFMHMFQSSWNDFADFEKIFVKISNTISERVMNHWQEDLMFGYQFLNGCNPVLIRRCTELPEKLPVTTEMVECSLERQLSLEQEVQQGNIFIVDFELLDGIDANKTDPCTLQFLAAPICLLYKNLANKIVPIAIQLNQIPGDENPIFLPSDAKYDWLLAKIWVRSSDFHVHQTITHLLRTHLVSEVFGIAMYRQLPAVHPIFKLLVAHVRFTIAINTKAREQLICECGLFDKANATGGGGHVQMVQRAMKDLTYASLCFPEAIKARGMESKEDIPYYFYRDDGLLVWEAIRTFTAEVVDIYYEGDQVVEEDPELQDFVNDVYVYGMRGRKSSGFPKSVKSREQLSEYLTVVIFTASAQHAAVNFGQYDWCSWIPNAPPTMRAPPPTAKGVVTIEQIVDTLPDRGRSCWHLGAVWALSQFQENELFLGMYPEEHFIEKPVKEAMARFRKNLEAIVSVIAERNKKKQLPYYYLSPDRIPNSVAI
Summary of the method: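 Fluorescence-based read-out, run entirely at room temperature. Enzyme mixture was exposed to a dose range of compound from 0.5 nM to 10 uM for 5 min before ATP and arachidonic acid were added to final levels of 100 uM and 3 uM.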

Rat whole blood (RWB) = experiment: LTB4 secretion assay in RWB (rat whole blood); type: cell-based; conditions: Rattus norvegicus
Procedure: Rat blood was drawn from caudal vena cava from male Sprague Dawley rat (6-9 weeks old) in vacuette coated with sodium heparin (Greiner bio-one, Cat #455051). The blood was pooled and diluted with RPMI (WelGENE, Cat #LM 011-05) to 1:1. The diluted blood was aliquoted into 96 well plate (200 ul per well) and compounds were added in dose response to a desired concentration ranging from 2.5 nM to 50 uM. After 15 min of pre-incubation at 37° C., calcium ionophore (A23187) was added to the final concentration of 10 uM. After 10 min of further incubation at 37° C., the LTB4 production was stopped by diluting the reaction mixture with ice cold PBS (1:4 dilutions). Cells were removed by centrifugation at 1000×g, 4° C. for 10 min, and the supernatant was transferred and then the quantification of LTB4 was done with Leukotriene B4 EIA kit (Cayman, Cat #520111) as instructed.

Compound | pEC50 [1] | pIC50 (human 5-LOX) | pEC50 (Rat whole blood (RWB))
Nc1ccc2nc(N)n(Cc3ccc(Oc4ccc(C(F)(F)F)cn4)cc3)c2c1 [Compound 243] | > 5.00 | > 6.00 | > 5.00
OCCNc1nc2ccc(NC3COC3)cc2n1Cc1ccc(Oc2ccc(Cl)cc2)cc1 [Compound 204] | > 5.00 | > 6.00 | > 5.00
Cn1c(NCc2ccc(Oc3ncc(Br)cn3)cc2)nc2ccc(NC3COC3)cc21 [Compound 362] | 4.70 to 5.00 | > 6.00 | > 5.00
CCC(Nc1nc2ccc(Nc3cc(C(C)C)[nH]n3)cc2n1C)c1ccc(Oc2ncc(Cl)cn2)cc1 (stereo not drawn) [Compound 529] | > 5.00 | > 6.00 | > 5.00
CC(C)n1c(NCc2ccc(Oc3ccc(Cl)cn3)cc2)nc2ccc(NC3COC3)cc21 [Compound 271] | > 5.00 | > 6.00 | > 5.00
Nc1ccc2[nH]c(NCc3ccc(Oc4ccc(Cl)cn4)cc3)nc2c1 [Compound 138] | > 5.00 | > 6.00 | > 5.00
Nc1ccc2[nH]c(NCc3ccc(Sc4ccc(Cl)cc4)cc3)nc2c1 [Compound 92] | > 5.00 | > 6.00 | > 5.00
Nc1ccc2[nH]c(NCc3ccc(Oc4ccc(F)c(F)c4)cc3)nc2c1 [Compound 113] | > 5.00 | > 6.00 | > 5.00
Cn1c(NCc2ccc(Oc3ncc(Cl)cn3)cc2)nc2ccc(Nc3cc(C(C)(C)C)[nH]n3)cc21 [Compound 469] | > 5.00 | > 6.00 | > 5.00
Nc1ccc2[nH]c(N3CCCC3c3ccc(Oc4ccc(Cl)cc4)cc3)nc2c1 (stereo not drawn) [Compound 145] | > 5.00 | > 6.00 | > 5.00
CCn1c(NCc2ccc(Oc3ncc(OC(F)(F)F)cn3)cc2)nc2ccc(Nc3cc(C(F)(F)F)n(C)n3)cc21 [Compound 545] | > 5.00 | 5.00 to 6.00 | > 5.00
CC(C)(O)Cn1c(NCc2ccc(Oc3ccc(Cl)cn3)cc2)nc2ccc(N)cc21 [Compound 203] | > 5.00 | > 6.00 | < 4.70
Cn1c(NCc2ccc(Oc3cccnc3)cc2)nc2ccc(NC3COC3)cc21 [Compound 227] | > 5.00 | > 6.00 | > 5.00
CCn1c(NCc2ccc(Oc3ncc(Cl)cn3)cc2)nc2ccc(Nc3cc(C(F)(F)F)n(C)n3)cc21 [Compound 504] | > 5.00 | 5.00 to 6.00 | > 5.00
Nc1ccc2[nH]c(NCc3ccc(Oc4ccccc4)cc3)nc2c1 [Compound 80] | > 5.00 | > 6.00 | > 5.00
Cn1c(NCc2ccc(Oc3cnc(N)nc3)cc2)nc2ccc(N)cc21 [Compound 360] | 4.70 to 5.00 | > 6.00 | > 5.00
Cn1c(NCc2ccc(COc3ccc(Cl)cn3)cc2)nc2ccc(NC3COC3)cc21 [Compound 305] | > 5.00 | > 6.00 | < 4.70
CCn1c(NCc2ccc(Oc3ncc(C(F)(F)F)cn3)cc2F)nc2ccc(Nc3cc(C(F)(F)F)n(C)n3)cc21 [Compound 527] | > 5.00 | < 5.00 | > 5.00
CCn1c(NCc2ccc(Oc3ncc(Cl)cn3)cc2)nc2ccc(Nc3cc(C)[nH]n3)cc21 [Compound 476] | > 5.00 | > 6.00 | > 5.00
OCCNc1nc2ccc(NC3COC3)cc2n1Cc1ccc(Oc2ccc(Cl)cn2)cc1 [Compound 251] | > 5.00 | > 6.00 | > 5.00
Cn1c(NCc2ccc(Oc3ccc4cc(F)ccc4n3)cc2)nc2ccc(NC3COC3)cc21 [Compound 383] | > 5.00 | > 6.00 | < 4.70
Cn1c(NCc2ccc(Oc3ccc(C(F)(F)F)cn3)cc2)nc2ccc(NC3COC3)cc21 [Compound 284] | > 5.00 | > 6.00 | > 5.00
Cn1nc(Nc2ccc3nc(NCc4ccc(Oc5ccc(Cl)cn5)cc4)n(C)c3c2)cc1C(F)(F)F [Compound 502] | > 5.00 | 5.00 to 6.00 | > 5.00

Compound | pEC50 [1] | pIC50 (human 5-LOX) | pEC50 (Rat whole blood (RWB))
Cn1c(NCc2ccc(Oc3ncc(Cl)cn3)cc2)nc2ccc(Nc3nc(C(F)(F)F)co3)cc21 [Compound 493] | > 5.00 | 5.00 to 6.00 | > 5.00
Cn1c(NCc2ccc(Oc3ncc(F)cn3)cc2)nc2ccc(NC3COC3)cc21 [Compound 337] | 4.70 to 5.00 | > 6.00 | 4.70 to 5.00
Cn1nc(C(F)(F)F)cc1Nc1ccc2nc(NCc3ccc(Oc4ncc(Cl)cn4)cc3)n(C)c2c1 [Compound 526] | > 5.00 | 5.00 to 6.00 | > 5.00
Cc1cc(Nc2ccc3nc(NCc4ccc(N(C)c5ncc(Cl)cn5)cc4)n(C)c3c2)n[nH]1 [Compound 471] | > 5.00 | > 6.00 | > 5.00
Cc1cnc(Nc2ccc3nc(NCc4ccc(Oc5ncc(Cl)cn5)cc4)n(C)c3c2)s1 [Compound 492] | > 5.00 | > 6.00 | > 5.00
CCn1c(NCc2ccc(Oc3ncc(Cl)cn3)cc2)nc2ccc(Nc3cc(C(C)(C)C)[nH]n3)cc21 [Compound 509] | > 5.00 | > 6.00 | > 5.00
CCn1c(NCc2ccc(Oc3ncc(Cl)cn3)cc2F)nc2ccc(Nc3cc(C(F)(F)F)n(C)n3)cc21 [Compound 506] | > 5.00 | < 5.00 | > 5.00
CC(C)(C)Nc1nc2cc(N)ccc2n1CCOc1ccc(OC(F)(F)F)cc1 [Compound 66] | > 5.00 | > 6.00 | < 4.70
CN(C)c1nc2cc(N)ccc2n1CCOc1ccc(Cl)cc1 [Compound 38] | > 5.00 | > 6.00 | < 4.70
Cn1ccc(Nc2ccc3nc(NCc4ccc(Oc5ncc(Cl)cn5)cc4)n(C)c3c2)n1 [Compound 414] | > 5.00 | > 6.00 | > 5.00
Nc1ccc2[nH]c(NCc3ccc(Oc4ccc(Cl)nc4)cc3)nc2c1 [Compound 136] | > 5.00 | > 6.00 | > 5.00
Cn1nc(Nc2ccc3nc(NCc4ccc(Oc5ncc(Cl)cn5)cc4F)n(C)c3c2)cc1C(F)(F)F [Compound 503] | > 5.00 | > 6.00 | > 5.00
Nc1ccc2[nH]c(NCc3ccc(OC(F)(F)F)cc3)nc2c1 [Compound 79] | > 5.00 | > 6.00 | > 5.00
Nc1ccc2c(c1)nc(N)n2Cc1ccc(Oc2ccc(Cl)cn2)cc1 [Compound 199] | > 5.00 | > 6.00 | > 5.00
CCn1c(NCc2ccc(Oc3ncc(C(F)(F)F)cn3)cc2)nc2ccc(Nc3cc(C(C)(C)C)[nH]n3)cc21 [Compound 507] | > 5.00 | > 6.00 | 4.70 to 5.00
Cc1[nH]nc(Nc2ccc3nc(NCc4ccc(Oc5ncc(Cl)cn5)cc4)n(C)c3c2)c1Cl [Compound 481] | > 5.00 | > 6.00 | > 5.00
Cc1nnc(Nc2ccc3nc(NCc4ccc(Oc5ncc(Cl)cn5)cc4)n(C)c3c2)o1 [Compound 498] | < 4.70 | < 5.00 | > 5.00
Cc1cc(Nc2ccc3nc(NCc4ccc(Nc5ncc(Cl)cn5)cc4)n(C)c3c2)n[nH]1 [Compound 486] | > 5.00 | > 6.00 | > 5.00
Cn1c(NCc2ccc(Oc3ccc(Cl)cc3)cc2)nc2ccc(NC3COC3)cc21 [Compound 184] | > 5.00 | > 6.00 | > 5.00
Cn1c(NCc2ccc(Oc3ncc(Cl)cn3)cc2)nc2ccc(N)cc21 [Compound 288] | > 5.00 | > 6.00 | > 5.00
Cc1cc(Nc2ccc3nc(NCc4ccc(Oc5ccc(Cl)cn5)cc4)n(C)c3c2)n[nH]1 [Compound 466] | > 5.00 | > 6.00 | > 5.00
Cn1ccc(Nc2ccc3nc(NCc4ccc(Oc5ncc(Cl)cn5)cc4)n(C)c3c2F)n1 [Compound 487] | > 5.00 | > 6.00 | > 5.00
